pIC50: −log10 of the molar value. Where two headings read alike, the source gives them in different places.
Legend:
Assay type in all cases: biochemical
RSK2 = RSK2 (Homo sapiens (Human), UniProt P51812); experiment: In vitro inhibition of RSK2; details: in vitro activity on RSK2; where multiple measurements were made, each value is reported
Experimental: (§1) The following Table 3 lists compounds that were tested for inhibition of RSK; the IC50 values are in micromolar units, and refer to inhibition of RSK1 and RSK2, respectively. Where multiple measurements were made, each value is reported.

activated ERK2 = activated ERK2 (Homo sapiens (Human), UniProt P28482); experiment: Activated ERK2 kinase assay (AlphaScreen, ERKtide peptide phosphorylation); details: 35 μM ATP, 30 min preincubation, read-out: ERK2 IC50
activated ERK2, sequence (P28482 whole entry): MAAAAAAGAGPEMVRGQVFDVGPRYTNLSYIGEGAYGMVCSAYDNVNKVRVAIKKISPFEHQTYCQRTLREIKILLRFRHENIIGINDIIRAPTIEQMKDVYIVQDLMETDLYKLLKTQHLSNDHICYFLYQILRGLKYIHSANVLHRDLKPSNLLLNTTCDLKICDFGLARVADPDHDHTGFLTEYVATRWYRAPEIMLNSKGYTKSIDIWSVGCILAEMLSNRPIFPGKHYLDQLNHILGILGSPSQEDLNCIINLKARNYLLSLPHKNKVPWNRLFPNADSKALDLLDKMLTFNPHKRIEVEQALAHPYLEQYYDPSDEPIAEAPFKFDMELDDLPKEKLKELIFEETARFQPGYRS

RSK1 = RSK1 (Homo sapiens (Human), UniProt Q15418); experiment: In vitro inhibition of RSK1; details: in vitro activity on RSK1
RSK1, sequence (Q15418 whole entry, species assumed): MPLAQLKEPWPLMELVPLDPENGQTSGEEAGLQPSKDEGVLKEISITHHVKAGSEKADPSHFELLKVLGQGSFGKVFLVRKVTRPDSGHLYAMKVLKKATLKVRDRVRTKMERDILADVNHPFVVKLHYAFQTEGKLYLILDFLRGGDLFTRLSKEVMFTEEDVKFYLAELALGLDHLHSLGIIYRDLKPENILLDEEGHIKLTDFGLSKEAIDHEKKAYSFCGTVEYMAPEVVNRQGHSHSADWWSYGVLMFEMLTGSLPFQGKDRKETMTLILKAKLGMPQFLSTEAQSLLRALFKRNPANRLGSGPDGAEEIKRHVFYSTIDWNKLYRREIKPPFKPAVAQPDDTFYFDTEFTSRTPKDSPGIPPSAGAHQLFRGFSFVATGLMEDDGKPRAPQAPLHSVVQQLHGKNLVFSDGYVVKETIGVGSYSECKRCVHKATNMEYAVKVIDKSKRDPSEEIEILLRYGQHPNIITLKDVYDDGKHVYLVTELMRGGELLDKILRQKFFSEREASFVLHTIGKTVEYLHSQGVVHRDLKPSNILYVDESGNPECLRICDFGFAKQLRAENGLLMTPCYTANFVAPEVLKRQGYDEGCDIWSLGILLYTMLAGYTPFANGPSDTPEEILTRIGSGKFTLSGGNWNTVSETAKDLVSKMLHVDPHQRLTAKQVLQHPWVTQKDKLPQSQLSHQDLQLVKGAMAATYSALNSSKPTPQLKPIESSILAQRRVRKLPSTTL
Experimental: as §1

[1] = […] ERK2, 200 nM ERKtide peptide
[2] = 0.25 nM ERK2, 200 nM ERKtide peptide

RSK2, sequence (P51812 whole entry, species assumed): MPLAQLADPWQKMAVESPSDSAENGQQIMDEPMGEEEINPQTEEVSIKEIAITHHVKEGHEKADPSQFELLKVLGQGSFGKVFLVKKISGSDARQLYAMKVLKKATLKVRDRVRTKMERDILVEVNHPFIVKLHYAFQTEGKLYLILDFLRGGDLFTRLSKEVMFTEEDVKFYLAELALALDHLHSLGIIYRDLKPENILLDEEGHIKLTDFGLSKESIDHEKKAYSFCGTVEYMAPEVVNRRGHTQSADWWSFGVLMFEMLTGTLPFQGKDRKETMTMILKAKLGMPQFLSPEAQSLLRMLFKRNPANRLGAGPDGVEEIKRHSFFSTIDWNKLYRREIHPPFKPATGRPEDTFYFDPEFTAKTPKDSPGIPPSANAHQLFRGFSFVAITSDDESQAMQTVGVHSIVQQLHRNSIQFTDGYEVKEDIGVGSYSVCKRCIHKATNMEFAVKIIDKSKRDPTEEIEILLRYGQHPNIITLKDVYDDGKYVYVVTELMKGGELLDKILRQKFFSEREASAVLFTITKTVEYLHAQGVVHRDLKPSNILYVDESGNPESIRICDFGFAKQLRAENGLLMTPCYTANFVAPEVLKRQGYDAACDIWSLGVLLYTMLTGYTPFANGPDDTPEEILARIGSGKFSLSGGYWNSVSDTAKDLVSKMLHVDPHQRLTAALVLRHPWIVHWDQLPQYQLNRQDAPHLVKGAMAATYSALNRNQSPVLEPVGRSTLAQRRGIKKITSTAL

| pIC50 (RSK2) | pIC50 (activated ERK2; [1]) | pIC50 (RSK1) | pIC50 (activated ERK2; [2]) | SMILES |
| --- | --- | --- | --- | --- |
| 6.21 | 4.42 | – | – | CN1CCN(C(=O)N2Cc3nc(Nc4ccccc4)ncc3C2(C)C)CC1(C)C [compound 149, (5,5-dimethyl-2-(phenylamino)-5H-pyrrolo[3,4-d]pyrimidin-6(7H)-yl)(3,3,4-trimethylpiperazin-1-yl)methanone] |
| 5.93 | 5.25 | 5.79 | – | CN1CCN(C(=O)N2Cc3nc(Nc4ccccc4)ncc3C2(C)C)CC1 [compound 151, (5,5-dimethyl-2-(phenylamino)-5H-pyrrolo[3,4-d]pyrimidin-6(7H)-yl)(4-methylpiperazin-1-yl)methanone] |
| 5.86 | 3.90 | – | – | CN1CC(NC(=O)N2Cc3nc(Nc4ccccc4)ncc3C2(C)C)C1 [compound 153, 5,5-dimethyl-N-(1-methylazetidin-3-yl)-2-(phenylamino)-5H-pyrrolo[3,4-d]pyrimidine-6(7H)-carboxamide] |
| 5.79 | 5.52 | – | – | CN1CCN(C(=O)N2Cc3nc(Nc4ccccc4)ncc3C2(C)C)C(Cc2ccccc2)C1 (stereo not drawn) [compound 154, (2-benzyl-4-methylpiperazin-1-yl)(5,5-dimethyl-2-(phenylamino)-5H-pyrrolo[3,4-d]pyrimidin-6(7H)-yl)methanone] |
| 5.72 | 6.01 | – | – | CC1(C)c2cnc(Nc3ccccc3)nc2CN1C(=O)NC1CCN(Cc2ccccc2)C1 (stereo not drawn) [compound 155, N-(1-benzylpyrrolidin-3-yl)-5,5-dimethyl-2-(phenylamino)-5H-pyrrolo[3,4-d]pyrimidine-6(7H)-carboxamide] |
| 5.59 | – | – | – | C[C@@H](NC(=O)N1Cc2nc(Nc3ccccc3)ncc2C1(C)C)c1ccccc1 [compound 156, (R)-5,5-dimethyl-2-(phenylamino)-N-(1-phenylethyl)-5H-pyrrolo[3,4-d]pyrimidine-6(7H)-carboxamide] |
| 5.41 | 4.60 | – | – | CN(C)CCNC(=O)N1Cc2nc(Nc3ccccc3)ncc2C1(C)C [compound 157, N-(2-(dimethylamino)ethyl)-5,5-dimethyl-2-(phenylamino)-5H-pyrrolo[3,4-d]pyrimidine-6(7H)-carboxamide] |
| 5.41 | 4.39 | – | – | CN1CCC(NC(=O)N2Cc3nc(Nc4ccccc4)ncc3C2(C)C)C1 (stereo not drawn) [compound 158, 5,5-dimethyl-N-(1-methylpyrrolidin-3-yl)-2-(phenylamino)-5H-pyrrolo[3,4-d]pyrimidine-6(7H)-carboxamide] |
| 5.25 | 4.71 | – | – | CC1(C)c2cnc(Nc3ccccc3)nc2CN1C(=O)NCC1CCN(Cc2ccccc2)C1 (stereo not drawn) [compound 159, N-((1-benzylpyrrolidin-3-yl)methyl)-5,5-dimethyl-2-(phenylamino)-5H-pyrrolo[3,4-d]pyrimidine-6(7H)-carboxamide] |
| 5.25 | 4.44 | – | – | Cn1cncc1CNC(=O)N1Cc2nc(Nc3ccccc3)ncc2C1(C)C [compound 160, 5,5-dimethyl-N-((1-methyl-1H-imidazol-5-yl)methyl)-2-(phenylamino)-5H-pyrrolo[3,4-d]pyrimidine-6(7H)-carboxamide] |
| 5.09 | 3.90 | – | – | CN(C)[C@@H]1CCCC[C@H]1NC(=O)N1Cc2nc(Nc3ccccc3)ncc2C1(C)C [compound 161, N-((1R,2R)-2-(dimethylamino)cyclohexyl)-5,5-dimethyl-2-(phenylamino)-5H-pyrrolo[3,4-d]pyrimidine-6(7H)-carboxamide] |
| 5.09 | 4.79 | – | – | CC1(C)c2cnc(Nc3ccccc3)nc2CN1C(=O)NCc1cocn1 [compound 162, 5,5-dimethyl-N-(oxazol-4-ylmethyl)-2-(phenylamino)-5H-pyrrolo[3,4-d]pyrimidine-6(7H)-carboxamide] |
| 4.86 | 4.08 | – | – | CN1CCC(NC(=O)N2Cc3nc(Nc4ccccc4)ncc3C2(C)C)CC1 [compound 163, 5,5-dimethyl-N-(1-methylpiperidin-4-yl)-2-(phenylamino)-5H-pyrrolo[3,4-d]pyrimidine-6(7H)-carboxamide] |
| 4.85 | 4.74 | – | – | CC1(C)c2cnc(Nc3ccccc3)nc2CN1C(=O)NCCO [compound 164, N-(2-hydroxyethyl)-5,5-dimethyl-2-(phenylamino)-5H-pyrrolo[3,4-d]pyrimidine-6(7H)-carboxamide] |
| 4.82 | – | – | 4.72 | CC1(C)c2cnc(Nc3ccccc3)nc2CN1C(=O)NC1CCOCC1 [compound 165, 5,5-dimethyl-2-(phenylamino)-N-(tetrahydro-2H-pyran-4-yl)-5H-pyrrolo[3,4-d]pyrimidine-6(7H)-carboxamide] |
| 4.79 | 4.35 | – | – | CN(C)Cc1ccccc1CNC(=O)N1Cc2nc(Nc3ccccc3)ncc2C1(C)C [compound 166, N-(2-((dimethylamino)methyl)benzyl)-5,5-dimethyl-2-(phenylamino)-5H-pyrrolo[3,4-d]pyrimidine-6(7H)-carboxamide] |
| – | – | – | 3.90 | CN(C)C[C@H](NC(=O)N1Cc2nc(Nc3ccccc3)ncc2C1(C)C)c1ccccc1 [compound 168, (R)-N-(2-(dimethylamino)-1-phenylethyl)-5,5-dimethyl-2-(phenylamino)-5H-pyrrolo[3,4-d]pyrimidine-6(7H)-carboxamide] |
| < 4.60 | – | – | – | C[C@H](NC(=O)N1Cc2nc(Nc3ccccc3)ncc2C1(C)C)c1ccccc1 [compound 169, (S)-5,5-dimethyl-2-(phenylamino)-N-(1-phenylethyl)-5H-pyrrolo[3,4-d]pyrimidine-6(7H)-carboxamide] |
| – | 6.46 | – | – | C[C@@H](NC(=O)N1Cc2nc(NC3CCOCC3)ncc2C1C1CC1)c1cccc(Cl)c1 (stereo partly drawn) [compound 171, N-((R)-1-(3-chlorophenyl)ethyl)-5-cyclopropyl-2-((tetrahydro-2H-pyran-4-yl)amino)-5H-pyrrolo[3,4-d]pyrimidine-6(7H)-carboxamide] |
| – | 6.84 | – | – | C[C@@H](NC(=O)N1Cc2nc(NC3CCOCC3)ncc2C1C1CC1)c1cccc(Cl)c1 (stereo partly drawn) [compound 172, N-((R)-1-(3-chlorophenyl)ethyl)-5-cyclopropyl-2-((tetrahydro-2H-pyran-4-yl)amino)-5H-pyrrolo[3,4-d]pyrimidine-6(7H)-carboxamide] |

— patent US9546173B2 (Novartis AG, priority 2012, dated 2017)
